This note sets out measurements from patent US20250019389A1, “HETEROCYCLIC AGONISTS” (Gasherbrum Bio, Inc., priority 2023, published 2025).

The target of the test is GLP-1 Receptor (Homo sapiens (Human), UniProt P43220). Briefly: GLP-1R agonist cAMP stimulation assay. The format is cell-based. As to conditions: cAMP stimulation in HEK293/GLP1R/CRE-LUC cells, 30 min at 37° C., cAMP dynamic 2 Kit (Cisbio). The protocol:
Activation of GLP-1 receptor is known to stimulate cyclic AMP (cAMP) production in cells which indicates primary coupling to the G as subunit of the G protein heterotrimeric complex.
To optimize functional activity directed toward G αs coupling, a HEK293/CRE-Luc cell line developed by HDB stably expressing the GLP-1 Receptor was used. 200× concentration of compound working solutions were prepared (Agilent Technologies Bravo) with ½ log serial dilution in 384-well Echo LDV plate (Labcyte, Cat #LP-0200). 50 nL/well 200× concentration of compound working solutions were moved to 384-well white low volume plate (Greiner, Cat #784075) using Labcyte ECH0550.1×10^5 cells/mL HEK293/GLP1R/CRE-LUC (HD Biosciences) cell suspensions prepared with assay buffer [DPBS containing 0.5 mM IBMX (Sigma, Cat #I5879) and 0.1% BSA (GENVIEW, Cat #FA016-100 g)], 10 μL cell suspensions were added to each well of previous generated assay plate which already contains 50 nL compound at 200× concentration using ThermoFisher Multidrop Combi (1000 cells/well). Seal the plate and incubate at 37° C. with 5% CO2 for 30 min.
After incubation the cAMP assay signal was generated using cAMP dynamic 2 Kit (Cisbio). 5 μL cAMP-d2 working solution was added to each well, followed with 5 μL Anti-cAMP antibody-cryptate working solution added to each well using ThermoFisher Multidrop Combi. Incubate at room temperature for 1 hour protected from light. Read the fluorescence at 665 and 615 nm with Reader PerkinElmer EnVision.

GLP-1 Receptor, sequence (P43220 24-463, species assumed): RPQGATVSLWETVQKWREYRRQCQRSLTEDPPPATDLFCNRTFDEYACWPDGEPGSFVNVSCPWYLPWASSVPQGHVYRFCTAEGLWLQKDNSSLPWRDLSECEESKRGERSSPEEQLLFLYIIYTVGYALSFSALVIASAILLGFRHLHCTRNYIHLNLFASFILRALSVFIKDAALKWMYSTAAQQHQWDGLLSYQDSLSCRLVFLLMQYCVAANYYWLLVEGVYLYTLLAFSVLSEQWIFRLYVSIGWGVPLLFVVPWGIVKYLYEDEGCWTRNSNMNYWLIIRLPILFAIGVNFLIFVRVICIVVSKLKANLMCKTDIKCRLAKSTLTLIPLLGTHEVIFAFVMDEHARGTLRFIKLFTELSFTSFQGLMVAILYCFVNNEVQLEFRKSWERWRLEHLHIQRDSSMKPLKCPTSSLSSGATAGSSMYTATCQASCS

Consider `CCP(=O)(CCO)c1ccc(-n2ccn(-c3c4c(nn3-c3cc(C)c(F)c(C)c3)CCN(C(=O)c3cc5cc(C6CCOCC6)ccc5n3[C@@]3(c5noc(=O)[nH]5)C[C@@H]3C)[C@H]4C)c2=O)cc1NC` (single isomer, unassigned) [Compound 102], for which the concentration for a half-maximal effect (EC50) amounted to 0.017 nM. In the case of `CCP(=O)(CCO)c1ccc(-n2ccn(-c3c4c(nn3-c3cc(C)c(F)c(C)c3)CCN(C(=O)c3cc5cc(C6CCOCC6)ccc5n3[C@@]3(c5noc(=O)[nH]5)C[C@@H]3C)[C@H]4C)c2=O)cc1NC` (single isomer, unassigned) [Compound 103], the concentration for a half-maximal effect (EC50) came out at 0.012 nM. `CCP(=O)(c1ccc(-n2ccn(-c3c4c(nn3-c3cc(C)c(F)c(C)c3)CCN(C(=O)c3cc5cc(C6CCOCC6)ccc5n3[C@@]3(c5noc(=O)[nH]5)C[C@@H]3C)[C@H]4C)c2=O)cc1NC)C(C)O` (single isomer, unassigned) [Compound 105] showed a half-maximal effective concentration (EC50) of 0.035 nM. Turning to `CCP(=O)(c1ccc(-n2ccn(-c3c4c(nn3-c3cc(C)c(F)c(C)c3)CCN(C(=O)c3cc5cc(C6CCOCC6)ccc5n3[C@@]3(c5noc(=O)[nH]5)C[C@@H]3C)[C@H]4C)c2=O)cc1NC)C(C)O` (single isomer, unassigned) [Compound 106], the concentration giving a half-maximal response (EC50) amounted to 0.029 nM. Turning to `CCP(=O)(c1ccc(-n2ccn(-c3c4c(nn3-c3cc(C)c(F)c(C)c3)CCN(C(=O)c3cc5cc(C6CCOCC6)ccc5n3[C@@]3(c5noc(=O)[nH]5)C[C@@H]3C)[C@H]4C)c2=O)cc1NC)C(C)O` (single isomer, unassigned) [Compound 107], a half-maximal response (EC50) required 0.042 nM. The result for `CCP(=O)(c1ccc(-n2ccn(-c3c4c(nn3-c3cc(C)c(F)c(C)c3)CCN(C(=O)c3cc5cc(C6CCOCC6)ccc5n3[C@@]3(c5noc(=O)[nH]5)C[C@@H]3C)[C@H]4C)c2=O)cc1NC)C(C)O` (single isomer, unassigned) [Compound 108] reads 0.031 nM.
